Measurements: paper PMC12591163, “Controllable Generation of Pathogen‐Specific Antimicrobial Peptides Through Knowledge‐Aware Prompt Diffusion Model” (Advanced Science, 2025)
Ends that are not written are not given here. Peptide text beside a SMILES is read from it.

Tests used:
Format in all cases: cell-based
E. coli ATCC 25922 = conditions: for MIC against E. coli: ATCC 25922; for antimicrobial activity against E. coli (in words): activity threshold defined as MIC ⩽ 128 µg mL^−1
Experimental: (§1) 2.3Details of the wet-lab evaluation […]
(§2) Pathogens used for minimum inhibitory concentration (MIC) measurements included E. coli ATCC 25922 and S. aureus
(§3) ATCC 25923. Both pathogens were streaked on Luria–Bertani (LB) agar and incubated at 37°C overnight. Individual colonies
(§4) were then selected from the agar plates and transferred to Mueller–Hinton broth (MHB) (Hopebio, China) for further cultivation.
(§5) The cultures were shaken at 160 rpm at 37°C overnight. Once the turbidity of the bacterial suspensions reached between 0.4
(§6) and 0.6 McFarland (MCF), the suspensions were diluted 20-fold with MHB. For the preparation of antimicrobial peptide
(§7) solutions, chemically synthesized peptides were dissolved in either ultrapure water (Biosharp, China) or dimethyl sulfoxide
(§8) (DMSO) (Biosharp, China) to achieve a stock concentration of […]. This stock solution was then further diluted with
(§9) MHB to obtain the concentration gradient of 2 to 512 µg/mL for testing. Subsequently, 200 µL of each peptide dilution was
(§10) pipetted into 96-well plates, followed by the addition of 10 µL of the diluted bacterial suspension to each well. The plates were
(§11) incubated at 37°C for 14-20 hours, and MIC values were determined as the lowest peptide concentration at which no bacterial
(§12) growth was observed. Antimicrobial activity assays were conducted in 96-well plates with […] experimental groups as follows:
(§13) 1) blank control group, containing 200 µL of MHB without bacterial suspension; 2) bacterial control group, with 200 µL of
(§14) MHB and 10 µL of bacterial suspension without peptide; 3) peptide treatment groups, consisting of 200 µL of MHB containing
(§15) varying peptide concentration gradient of 2 to 512 µg/mL along with 10 µL of bacterial suspension. All experiments were
(§16) conducted in triplicate. The positive (proper growth of bacteria) and negative (sterility) controls were included.
(§17) The Cell Counting Kit-8 (CCK-8) assay was employed to evaluate the cytotoxicity of peptides against human lung epithelial
(§18) Beas-2B cells. The cells were seeded at a density of 5× 10^3 cells per 100 µL in 96-well plates and cultured overnight at 37°C
(§19) with 5% CO2. Subsequently, the cells were treated with 100 µL of F-12K medium (Procell, China) containing the peptide
(§20) concentration gradient of 4 to 512 µg/mL and incubated for 24 hours. After incubation, 10 µL of CCK-8 solution (Abbkine,
(§21) China) was added to each well, and the cells were incubated for an additional 4 hours at 37°C. Optical density (OD) at 450 nm
(§22) was measured using an automated microplate reader (BioTek, USA). Each treatment was performed in six duplicate wells.
(§23) Cell viability was calculated as the percentage relative to the control, using the formula: Cell viability (%) = [(OD[peptide] -
(§24) OD[blank]) / (OD[control] - OD[blank])] × 100%.
(§25) 3.1More landscape for peptide datasets
(§26) For the diversity of GO terms, the biological process category encompasses 3,430 terms (accounting for 47% of the total terms)
(§27) and 245,683 peptides (representing 22% of the total peptides); the cellular component category includes 819 terms (11%) and
(§28) 469,675 peptides (43%); the molecular function category covers 3,017 terms (42%) and 389,436 peptides (35%). In the context
(§29) of pathogen diversity (Table 1), the Gram-positive group comprises 24 distinct pathogens (accounting for 43% of the total
(§30) pathogen numbers), and 31,726 peptide terms (representing 49% of the total peptide numbers). The Gram-negative group is
(§31) characterized by 17 pathogens (constituting 30% of the pathogen diversity), and 28,206 peptide terms (making up 44% of the […]

S. aureus ATCC 25923 = system: S. aureus ATCC 25923
Experimental: as §1, §2, §3, §4, §5, §6, §7, §8, §9, §10, §11, §12, §13, §14, §15, §16, §17, §18, §19, §20, §21, §22, §23, §24, §25, §26, §27, §28, §29, §30, §31

[1] = system: human lung epithelial Beas-2B cells; conditions: 24 h

| Compound | MIC against E. coli (E. coli ATCC 25922) [µg/mL] | antimicrobial activity against E. coli (in words) (E. coli ATCC 25922) | MIC against S. aureus (S. aureus ATCC 25923; ATCC 25923) [µg/mL] | antimicrobial activity against S. aureus (in words) (S. aureus ATCC 25923; activity threshold defined as MIC ⩽ 128 µg mL^−1) | peptide concentration causing 50% cytotoxicity (CC50) [1] [µg/mL] |
| --- | --- | --- | --- | --- | --- |
| MARRKPLGKKLRLRAAFK [Pep8] | ≥ 512 | – | – | – | – |
| KRTSQQRLQRLITVGRFRLW [Pep7] | ≥ 512 | – | – | – | – |
| AKRYYWRWFKHWYRFAHG [Pep10] | – | exhibit antimicrobial activity | 16 | exhibit antimicrobial activity | ≥ 256 |
| CC(C)C[C@H](NC(=O)[C@H](Cc1ccc(O)cc1)NC(=O)CNC(=O)[C@H](CO)NC(=O)[C@H](CC(C)C)NC(=O)[C@H](CCCNC(=N)N)NC(=O)[C@H](CCCNC(=N)N)NC(=O)[C@@H](NC(=O)[C@H](Cc1ccccc1)NC(=O)[C@H](CC(C)C)NC(=O)[C@@H](N)Cc1ccccc1)C(C)C)C(=O)N[C@@H](CC(N)=O)C(=O)N[C@@H](Cc1ccc(O)cc1)C(=O)N[C@H](C(=O)N[C@H](C(=O)N[C@@H](CCCNC(=N)N)C(=O)N[C@@H](CS)C(=O)N[C@@H](CCCNC(=N)N)C(=O)N[C@@H](CCCNC(=N)N)C(=O)N[C@@H](Cc1ccccc1)C(=O)N[C@@H](CCCCN)C(=O)N[C@@H](Cc1ccccc1)C(=O)N[C@@H](CS)C(=O)N[C@@H](C)C(=O)O)C(C)C)[C@@H](C)O [Pep6] (H-FLFVRRLSGYLNYTVRCRRFKFCA-OH; N-terminus and C-terminus assumed) | – | demonstrated the activity | – | – | – |
